In PubChem BioAssay AID1919007 (Molecular Pharmacology Branch, DTP, NCI, 2023):

Tested on: A498 complex spheroids with HUVEC/MSC, growth
Experiment: Anticancer human tumor A498 cell line growth inhibition [AhR];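 further: seven day exposure starting three days after spheroid seeding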;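 on viability, T/C: luminescence signal used as a surrogate for viable cells; luminescence viability scaled so 100% equals DMSO vehicle wells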
Conditions: for IC50: curve of first compound; for viability, T/C: stronger effect = lower value
Summary of the method: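 Agents were dosed in half-log steps down from roughly clinical Cmax, or from 10 microM where Cmax was unknown, alone and with AhR antagonists. Read-out: percent test/control growth of tumor spheroids containing HUVEC and MSC stromal cells.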

[1] = second compound 0.1 µM, first compound 0.0316 µM
[2] = second compound 0.1 µM, first compound 0.1 µM
[3] = second compound 0.1 µM, first compound 0.316 µM
[4] = second compound 0.1 µM, first compound 1 µM
[5] = second compound 0.1 µM, first compound 3.16 µM
[6] = second compound 0.1 µM, first compound 10 µM
[7] = second compound 0.316 µM, first compound 0.0316 µM
[8] = second compound 0.316 µM, first compound 0.1 µM
[9] = second compound 0.316 µM, first compound 0.316 µM
[10] = second compound 0.316 µM, first compound 1 µM
[11] = second compound 0.316 µM, first compound 3.16 µM
[12] = second compound 0.316 µM, first compound 10 µM
[13] = second compound 1 µM, first compound 0.0316 µM
[14] = second compound 1 µM, first compound 0.1 µM
[15] = second compound 1 µM, first compound 0.316 µM
[16] = second compound 1 µM, first compound 1 µM
[17] = second compound 1 µM, first compound 3.16 µM
[18] = second compound 1 µM, first compound 10 µM
[19] = second compound 3.16 µM, first compound 0.0316 µM
[20] = second compound 3.16 µM, first compound 0.1 µM
[21] = second compound 3.16 µM, first compound 0.316 µM
[22] = second compound 3.16 µM, first compound 1 µM
[23] = second compound 3.16 µM, first compound 3.16 µM
[24] = second compound 3.16 µM, first compound 10 µM
[25] = second compound 10 µM, first compound 0.0316 µM
[26] = second compound 10 µM, first compound 0.1 µM
[27] = second compound 10 µM, first compound 0.316 µM
[28] = second compound 10 µM, first compound 1 µM
[29] = second compound 10 µM, first compound 3.16 µM
[30] = second compound 10 µM, first compound 10 µM
[31] = second compound 0.1 µM, first compound 0.00949 µM
[32] = second compound 0.1 µM, first compound 0.03 µM
[33] = second compound 0.1 µM, first compound 0.0949 µM
[34] = second compound 0.1 µM, first compound 0.3 µM
[35] = second compound 0.1 µM, first compound 0.949 µM
[36] = second compound 0.1 µM, first compound 3 µM
[37] = second compound 0.316 µM, first compound 0.00949 µM
[38] = second compound 0.316 µM, first compound 0.03 µM
[39] = second compound 0.316 µM, first compound 0.0949 µM
[40] = second compound 0.316 µM, first compound 0.3 µM
[41] = second compound 0.316 µM, first compound 0.949 µM
[42] = second compound 0.316 µM, first compound 3 µM
[43] = second compound 1 µM, first compound 0.00949 µM
[44] = second compound 1 µM, first compound 0.03 µM
[45] = second compound 1 µM, first compound 0.0949 µM
[46] = second compound 1 µM, first compound 0.3 µM
[47] = second compound 1 µM, first compound 0.949 µM
[48] = second compound 1 µM, first compound 3 µM
[49] = second compound 3.16 µM, first compound 0.00949 µM
[50] = second compound 3.16 µM, first compound 0.03 µM
[51] = second compound 3.16 µM, first compound 0.0949 µM
[52] = second compound 3.16 µM, first compound 0.3 µM
[53] = second compound 3.16 µM, first compound 0.949 µM
[54] = second compound 3.16 µM, first compound 3 µM
[55] = second compound 10 µM, first compound 0.00949 µM
[56] = second compound 10 µM, first compound 0.03 µM
[57] = second compound 10 µM, first compound 0.0949 µM
[58] = second compound 10 µM, first compound 0.3 µM
[59] = second compound 10 µM, first compound 0.949 µM
[60] = second compound 10 µM, first compound 3 µM

CC1(C)CCC(CN2CCN(c3ccc(C(=O)NS(=O)(=O)c4ccc(NCC5CCOCC5)c([N+](=O)[O-])c4)c(Oc4cnc5[nH]ccc5c4)c3)CC2)=C(c2ccc(Cl)cc2)C1 + CC(CO)NC(=O)c1cc(-c2ccc(Cl)cc2)nn(-c2cnn(C)c2)c1=O
IC50 (second compound 0.1 µM): 5.41 µM | IC50 (second compound 0.316 µM): 5.05 µM | IC50 (second compound 1 µM): 4.9 µM | IC50 (second compound 3.16 µM): 3.97 µM | IC50 (second compound 10 µM): 3.8 µM | viability, T/C [1]: 98.3% | viability, T/C [2]: 98% | viability, T/C [3]: 94.3% | viability, T/C [4]: 86.4% | viability, T/C [5]: 75.1% | viability, T/C [6]: 23.6% | viability, T/C [7]: 91.1% | viability, T/C [8]: 92.3% | viability, T/C [9]: 85.7% | viability, T/C [10]: 84.7% | viability, T/C [11]: 69.7% | viability, T/C [12]: 21.6% | viability, T/C [13]: 82.5% | viability, T/C [14]: 85.1% | viability, T/C [15]: 86.4% | viability, T/C [16]: 79.5% | viability, T/C [17]: 68.8% | viability, T/C [18]: 20.3% | viability, T/C [19]: 77.5% | viability, T/C [20]: 79.4% | viability, T/C [21]: 79.4% | viability, T/C [22]: 63.3% | viability, T/C [23]: 61.2% | viability, T/C [24]: 20.6% | viability, T/C [25]: 64.3% | viability, T/C [26]: 69.5% | viability, T/C [27]: 66.1% | viability, T/C [28]: 59.4% | viability, T/C [29]: 56.8% | viability, T/C [30]: 22.4%

CC1COCCN1c1cc(C2(S(C)(=N)=O)CC2)nc(-c2ccnc3[nH]ccc23)n1 (stereo not given) + CC(CO)NC(=O)c1cc(-c2ccc(Cl)cc2)nn(-c2cnn(C)c2)c1=O
IC50 (second compound 0.1 µM): 1.77 µM | IC50 (second compound 0.316 µM): 1.64 µM | IC50 (second compound 1 µM): 1.28 µM | IC50 (second compound 3.16 µM): 1.19 µM | IC50 (second compound 10 µM): 0.784 µM | viability, T/C [1]: 96.6% | viability, T/C [2]: 94.9% | viability, T/C [3]: 85.2% | viability, T/C [4]: 66% | viability, T/C [5]: 34.2% | viability, T/C [6]: 18.2% | viability, T/C [7]: 88.7% | viability, T/C [8]: 89.6% | viability, T/C [9]: 84% | viability, T/C [10]: 65.1% | viability, T/C [11]: 30.2% | viability, T/C [12]: 19.7% | viability, T/C [13]: 84.3% | viability, T/C [14]: 86.8% | viability, T/C [15]: 87% | viability, T/C [16]: 53.5% | viability, T/C [17]: 30.6% | viability, T/C [18]: 17.1% | viability, T/C [19]: 80.6% | viability, T/C [20]: 81.8% | viability, T/C [21]: 78.5% | viability, T/C [22]: 52.1% | viability, T/C [23]: 29.1% | viability, T/C [24]: 16.5% | viability, T/C [25]: 70.1% | viability, T/C [26]: 65.7% | viability, T/C [27]: 62.8% | viability, T/C [28]: 46.9% | viability, T/C [29]: 25.8% | viability, T/C [30]: 17.7%

CCN(c1cc(-c2ccc(CN3CCOCC3)cc2)cc(C(=O)NCc2c(C)cc(C)[nH]c2=O)c1C)C1CCOCC1 + CC(CO)NC(=O)c1cc(-c2ccc(Cl)cc2)nn(-c2cnn(C)c2)c1=O
IC50 (second compound 0.1 µM): > 3 µM | IC50 (second compound 0.316 µM): > 3 µM | IC50 (second compound 1 µM): > 3 µM | IC50 (second compound 3.16 µM): > 3 µM | IC50 (second compound 10 µM): > 3 µM | viability, T/C [31]: 99.8% | viability, T/C [32]: 95% | viability, T/C [33]: 97.8% | viability, T/C [34]: 95.6% | viability, T/C [35]: 102% | viability, T/C [36]: 103% | viability, T/C [37]: 93.2% | viability, T/C [38]: 101% | viability, T/C [39]: 97.8% | viability, T/C [40]: 93.3% | viability, T/C [41]: 96.1% | viability, T/C [42]: 98.9% | viability, T/C [43]: 94.4% | viability, T/C [44]: 95.8% | viability, T/C [45]: 103% | viability, T/C [46]: 92.3% | viability, T/C [47]: 95.4% | viability, T/C [48]: 97.4% | viability, T/C [49]: 84.3% | viability, T/C [50]: 96.2% | viability, T/C [51]: 101% | viability, T/C [52]: 88.5% | viability, T/C [53]: 85.6% | viability, T/C [54]: 102% | viability, T/C [55]: 72.7% | viability, T/C [56]: 77.5% | viability, T/C [57]: 83.3% | viability, T/C [58]: 75.3% | viability, T/C [59]: 70.3% | viability, T/C [60]: 75.9%

Nc1ncn(C2CC(O)C(CO)S2)c(=O)n1 (stereo not given) + CC(CO)NC(=O)c1cc(-c2ccc(Cl)cc2)nn(-c2cnn(C)c2)c1=O
IC50 (second compound 0.1 µM): > 0.3 µM | IC50 (second compound 0.316 µM): > 0.3 µM | IC50 (second compound 1 µM): > 0.3 µM | IC50 (second compound 3.16 µM): > 0.3 µM | IC50 (second compound 10 µM): > 0.3 µM | viability, T/C (second compound 0.1 µM, first compound 0.000949 µM): 98% | viability, T/C (second compound 0.1 µM, first compound 0.003 µM): 101% | viability, T/C [31]: 96.3% | viability, T/C [32]: 93.8% | viability, T/C [33]: 83.6% | viability, T/C [34]: 68.8% | viability, T/C (second compound 0.316 µM, first compound 0.000949 µM): 93% | viability, T/C (second compound 0.316 µM, first compound 0.003 µM): 109% | viability, T/C [37]: 95.5% | viability, T/C [38]: 86% | viability, T/C [39]: 83.4% | viability, T/C [40]: 72.1% | viability, T/C (second compound 1 µM, first compound 0.000949 µM): 96.5% | viability, T/C (second compound 1 µM, first compound 0.003 µM): 99% | viability, T/C [43]: 98.2% | viability, T/C [44]: 92.5% | viability, T/C [45]: 87.4% | viability, T/C [46]: 70.3% | viability, T/C (second compound 3.16 µM, first compound 0.000949 µM): 87.5% | viability, T/C (second compound 3.16 µM, first compound 0.003 µM): 90.9% | viability, T/C [49]: 105% | viability, T/C [50]: 76.6% | viability, T/C [51]: 69.7% | viability, T/C [52]: 70.6% | viability, T/C (second compound 10 µM, first compound 0.000949 µM): 74.9% | viability, T/C (second compound 10 µM, first compound 0.003 µM): 78.3% | viability, T/C [55]: 78.3% | viability, T/C [56]: 71.9% | viability, T/C [57]: 65% | viability, T/C [58]: 59.3%

O=C(C=Cn1cnc(-c2cc(C(F)(F)F)cc(C(F)(F)F)c2)n1)NNc1cnccn1 + CC(CO)NC(=O)c1cc(-c2ccc(Cl)cc2)nn(-c2cnn(C)c2)c1=O
IC50 (second compound 0.1 µM): 0.0585 µM | IC50 (second compound 0.316 µM): 0.0516 µM | IC50 (second compound 1 µM): 0.0458 µM | IC50 (second compound 3.16 µM): 0.0327 µM | IC50 (second compound 10 µM): 0.00975 µM | viability, T/C [31]: 72.7% | viability, T/C [32]: 69% | viability, T/C [33]: 36.2% | viability, T/C [34]: 23.2% | viability, T/C [35]: 22.3% | viability, T/C [36]: 17.8% | viability, T/C [37]: 74.8% | viability, T/C [38]: 62.7% | viability, T/C [39]: 35.4% | viability, T/C [40]: 23.1% | viability, T/C [41]: 17.9% | viability, T/C [42]: 14.7% | viability, T/C [43]: 67.2% | viability, T/C [44]: 58.8% | viability, T/C [45]: 35.3% | viability, T/C [46]: 23.1% | viability, T/C [47]: 18.5% | viability, T/C [48]: 16.7% | viability, T/C [49]: 61.3% | viability, T/C [50]: 51.4% | viability, T/C [51]: 32.1% | viability, T/C [52]: 20.7% | viability, T/C [53]: 15.7% | viability, T/C [54]: 18.4% | viability, T/C [55]: 49.9% | viability, T/C [56]: 46.5% | viability, T/C [57]: 31.2% | viability, T/C [58]: 20.9% | viability, T/C [59]: 18.5% | viability, T/C [60]: 17.4%
